In article PMC10892375, “Determination of the Cannabinoid CB1 Receptor’s Positive Allosteric Modulator Binding Site through Mutagenesis Studies” (Pharmaceuticals, 2024):

Columns and labels:
Type in all cases: cell-based
hCB1 mutant I245A^4.54 = molecular target: T1, hCB1 mutant I245A^4.54 (Homo sapiens, UniProt P21554, I245A); experiment: pIRES G protein dissociation BRET assay, I245A mutant; conditions: 10 μM ligand alone
T1 construct: expressed in transfected cells; host or cells: HEK293
Procedure: (§1) Mutagenesis studies using the pIRES G protein dissociation assay were performed using human embryonic kidney 293 (HEK293) wild-type cells transiently transfected with pplss-3HA-hCB1 [31] or modified receptor. All cells were cultured in Dulbecco’s Modified Eagle’s Medium (DMEM) supplemented with 10% fetal bovine serum (FBS), grown in […] vented-cap flasks, and maintained in a 37° C incubator at 5% CO2.
(§2) Mutants of pplss-3HA-hCB1 (WT, pEF-V4-HisA (pEF4a) construct) were generated using a modified QuikChange® (Stratagene, San Diego, CA, USA) site-directed mutagenesis approach using KAPA HiFi Hotstart Polymerase (KAPA Biosystems, Roche, Basel, Switzerland). Briefly, single-stranded primers used to modify one or two base pairs within the target amino acid using PCR were purchased from Integrated DNA Technologies (IDT, Coralville, IA, USA). All pplss-hCB1 mutants were generated using the pplss-3HA-hCB1 pEF4a as parental DNA. PCR products were generated using recommended cycling conditions and treated with Dpn1 (New England Biolabs, Ipswich, MA, USA) overnight at 37° C to digest methylated parental DNA. PCR products were electrophoresed and run on an agarose gel (1% (w.v^−1) agarose, HydraGene, Piscataway, NJ, USA) containing 0.25 μg/mL ethidium bromide (Sigma-Aldrich, St. Louis, MO, USA). Gels were run in 40 mM TRIS-acetate buffer containing […] (pH 8.3) at 100 V for 30 min, maximum current and included a 1kb+ DNA ladder (Invitrogen, Thermo Fisher Scientific, Carlsbad, CA, USA) for reference. Gels were imaged using an UVTech Alliance Q9 Mini transilluminator (UVTech Alliance, Cambridge, UK). Digested products were then used to transform NEB 5α competent E. coli cells in accordance with manufacturer’s instructions. Briefly, transformed PCR products were grown overnight on 8.5 mL Luria Broth agar plates (containing 100 μg/mL ampicillin) at 37° C. Single bacterial colonies were picked and inoculated in Luria Broth (containing 100 μg/mL ampicillin) and grown overnight in a shaking incubator at 37° C. Plasmids were then harvested and purified using a Qiagen miniprep kit (Qiagen, Hilden, Germany) and validated using sequencing (Genetics Analysis Service, University of Otago, Dunedin, New Zealand).
(§3) Dissociation of the G protein heterotrimer, specifically Gαi1, Gβ1, and Gγ2, was investigated using a bioluminescence resonance energy transfer (BRET) assay with the pIRES biosensor first described by and adapted by.
(§4) Briefly, 3 × 10^6 WT HEK293 cells were seeded into 10 cm culture dishes (Corning, Corning, NY, USA; one dish for the control receptor and one for each modified receptor) and incubated at 37 °C for 24 h to gain 50–60% confluency. Culture medium was then replaced and transfection mixtures containing 3 μg pIRES vector and 1 μg receptor (either pplss-hCB1 or modified receptor) were prepared (4 μg total DNA). Plasmids were initially diluted in sterile Milli-Q water before being diluted in OptiMEM reduced serum medium (Thermo Fisher Scientific, Waltham, MA, USA) and combined with […] polyethylenimine (PEI)-max (1:9 DNA:PEI-max ratio) and incubated at room temperature for 20 min. Transfection mixtures were then added to cells via dropwise addition, and cells were incubated at 37 °C for 24 h. Transfected cells were lifted and plated at 50,000 cells/well into poly-d-lysine (PDL; Sigma-Aldrich) coated white 96-well CulturPlates (PerkinElmer, Waltham, MA, USA) and incubated for a further 24 h at 37 °C.
(§5) To assay, the culture medium was aspirated and cells were washed with phosphate buffered saline (PBS) and replaced with BRET assay medium (phenol red free DMEM containing 25 mM HEPES and supplemented with 1 mg/mL bovine serum albumin; BSA, MP Biomedicals, Auckland, New Zealand) for 30 min prior to drug addition (serum starve). Drugs were prepared at 10 × concentration in BRET assay medium, combined in a polypropylene V-bottom plate, and incubated at 37° C prior to drug stimulation.

hCB1 mutant F191A^3.27 = molecular target: T2, hCB1 mutant F191A^3.27 (Homo sapiens, UniProt P21554, F191A); experiment: pIRES G protein dissociation BRET assay, F191A mutant; conditions: for G protein dissociation, AUC of 10 μM compound (maximal response): 10 μM ligand alone; for Allosteric agonism: G protein dissociation in the absence of an orthosteric ligand: 10 μM, result in words
T2 construct: expressed in transfected cells; host or cells: HEK293
Procedure: as §1, §2, §3, §4, §5

hCB1 mutant Y172A^2.59 = molecular target: T3, hCB1 mutant Y172A^2.59 (Homo sapiens, UniProt P21554, Y172A); experiment: pIRES G protein dissociation BRET assay, Y172A mutant; conditions: for Increase in the potency of CP55940-induced G protein dissociation: 10 μM allosteric ligand; for G protein dissociation, AUC of 10 μM compound (maximal response): 10 μM ligand alone
T3 construct: expressed in transfected cells; host or cells: HEK293
Procedure: as §1, §2, §3, §4, §5

hCB1 mutant L209A^3.45 = molecular target: T4, hCB1 mutant L209A^3.45 (Homo sapiens, UniProt P21554, L209A); experiment: pIRES G protein dissociation BRET assay, L209A mutant; conditions: 10 μM ligand alone
T4 construct: expressed in transfected cells; host or cells: HEK293
Procedure: as §1, §2, §3, §4
as §5, with “stimulation. […]” for “stimulation.”

hCB1 mutant F408A^8.54 = molecular target: T5, hCB1 mutant F408A^8.54 (Homo sapiens, UniProt P21554, F408A); experiment: pIRES G protein dissociation BRET assay, F408A mutant; conditions: 10 μM ligand alone
T5 construct: expressed in transfected cells; host or cells: HEK293
Procedure: as §1, §2, §3, §4, §5

hCB1 mutant L404A^8.50 = molecular target: T6, hCB1 mutant L404A^8.50 (Homo sapiens, UniProt P21554, L404A); experiment: pIRES G protein dissociation BRET assay, L404A mutant; conditions: 10 μM ligand alone
T6 construct: expressed in transfected cells; host or cells: HEK293
Procedure: as §1, §2, §3, §4, §5

hCB1 mutant H154A^2.41 = molecular target: T7, hCB1 mutant H154A^2.41 (Homo sapiens, UniProt P21554, H154A); experiment: pIRES G protein dissociation BRET assay, H154A mutant; conditions: 10 μM ligand alone
T7 construct: expressed in transfected cells; host or cells: HEK293
Procedure: as §1, §2, §3, §4, §5

hCB1 mutant K232A^4.41 = molecular target: T8, hCB1 mutant K232A^4.41 (Homo sapiens, UniProt P21554, K232A); experiment: pIRES G protein dissociation BRET assay, K232A mutant; conditions: 10 μM ligand alone
T8 construct: expressed in transfected cells; host or cells: HEK293
Procedure: as §1, §2, §3, §4, §5

hCB1 mutant F237A^4.46 = molecular target: T9, hCB1 mutant F237A^4.46 (Homo sapiens, UniProt P21554, F237A); experiment: pIRES G protein dissociation BRET assay, F237A mutant; conditions: 10 μM ligand alone
T9 construct: expressed in transfected cells; host or cells: HEK293
Procedure: as §1, §2, §3, §4, §5

hCB1 mutant R220A^3.56 = molecular target: T10, hCB1 mutant R220A^3.56 (Homo sapiens, UniProt P21554, R220A); experiment: pIRES G protein dissociation BRET assay, R220A mutant; conditions: 10 μM ligand alone
T10 construct: expressed in transfected cells; host or cells: HEK293
Procedure: as §1, §2, §3, §4, §5

hCB1 mutant S173A^2.60 = molecular target: T11, hCB1 mutant S173A^2.60 (Homo sapiens, UniProt P21554, S173A); experiment: pIRES G protein dissociation BRET assay, S173A mutant; conditions: 10 μM ligand alone
T11 construct: expressed in transfected cells; host or cells: HEK293
Procedure: as §1, §2, §3, §4, §5

T2 sequence (P21554 whole entry F191A): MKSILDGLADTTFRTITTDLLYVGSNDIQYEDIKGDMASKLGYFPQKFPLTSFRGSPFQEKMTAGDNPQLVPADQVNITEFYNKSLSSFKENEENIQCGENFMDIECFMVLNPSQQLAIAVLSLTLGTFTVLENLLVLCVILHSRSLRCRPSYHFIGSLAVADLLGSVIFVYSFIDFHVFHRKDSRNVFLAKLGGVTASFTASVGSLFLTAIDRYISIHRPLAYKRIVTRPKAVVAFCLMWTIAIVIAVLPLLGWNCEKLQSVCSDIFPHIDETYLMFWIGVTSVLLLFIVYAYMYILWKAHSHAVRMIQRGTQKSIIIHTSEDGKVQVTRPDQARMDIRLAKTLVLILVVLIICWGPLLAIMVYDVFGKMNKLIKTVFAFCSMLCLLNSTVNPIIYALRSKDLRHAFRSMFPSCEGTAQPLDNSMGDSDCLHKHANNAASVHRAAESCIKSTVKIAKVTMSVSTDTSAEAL
T3 sequence (P21554 whole entry Y172A): as the sequence (P21554 whole entry F191A) above, with Y172A, A191F counted along it
T8 sequence (P21554 whole entry K232A): as the sequence (P21554 whole entry F191A) above, with A191F, K232A counted along it
T11 sequence (P21554 whole entry S173A): as the sequence (P21554 whole entry F191A) above, with S173A, A191F counted along it
T4 sequence (P21554 whole entry L209A): as the sequence (P21554 whole entry F191A) above, with A191F, L209A counted along it
T6 sequence (P21554 whole entry L404A): as the sequence (P21554 whole entry F191A) above, with A191F, L404A counted along it
T1 sequence (P21554 whole entry I245A): as the sequence (P21554 whole entry F191A) above, with A191F, I245A counted along it
T5 sequence (P21554 whole entry F408A): as the sequence (P21554 whole entry F191A) above, with A191F, F408A counted along it
T7 sequence (P21554 whole entry H154A): as the sequence (P21554 whole entry F191A) above, with H154A, A191F counted along it
T9 sequence (P21554 whole entry F237A): as the sequence (P21554 whole entry F191A) above, with A191F, F237A counted along it
T10 sequence (P21554 whole entry R220A): as the sequence (P21554 whole entry F191A) above, with A191F, R220A counted along it

Row | SMILES | G protein dissociation, AUC of 10 μM compound (maximal response) (hCB1 mutant I245A^4.54) | G protein dissociation, AUC of 10 μM compound (maximal response) (hCB1 mutant F191A^3.27) | Allosteric agonism: G protein dissociation in the absence of an orthosteric ligand (hCB1 mutant F191A^3.27) | Increase in the potency of CP55940-induced G protein dissociation (hCB1 mutant Y172A^2.59) | G protein dissociation, AUC of 10 μM compound (maximal response) (hCB1 mutant Y172A^2.59) | G protein dissociation, AUC of 10 μM compound (maximal response) (hCB1 mutant L209A^3.45) | G protein dissociation, AUC of 10 μM compound (maximal response) (hCB1 mutant F408A^8.54) | G protein dissociation, AUC of 10 μM compound (maximal response) (hCB1 mutant L404A^8.50) | G protein dissociation, AUC of 10 μM compound (maximal response) (hCB1 mutant H154A^2.41) | G protein dissociation, AUC of 10 μM compound (maximal response) (hCB1 mutant K232A^4.41) | G protein dissociation, AUC of 10 μM compound (maximal response) (hCB1 mutant F237A^4.46) | G protein dissociation, AUC of 10 μM compound (maximal response) (hCB1 mutant R220A^3.56) | G protein dissociation, AUC of 10 μM compound (maximal response) (hCB1 mutant S173A^2.60)
1 | O=[N+]([O-])C[C@@H](c1ccccc1)c1c(-c2ccccc2)[nH]c2ccccc12 [GAT229] | −121.6 ± 8.0 | 22.1 ± 6.4 | abolished | less than 0.5 log units | −207.0 ± 7.1 | −25.1 ± 3.5 | −110.0 ± 8.6 | −88.9 ± 6.2 | −154.6 ± 7.8 | −134.5 ± 7.9 | −52.4 ± 5.2 | −102.9 ± 9.9 | −137.3 ± 4.8
2 | O=[N+]([O-])C[C@H](c1ccccc1)c1c(-c2ccccc2)[nH]c2ccccc12 [GAT228] | −90.3 ± 8.5 | 19.5 ± 11.9 | abolished | less than 0.5 log units | −133.4 ± 9.8 | −19.0 ± 3.3 | −90.3 ± 8.3 | −63.2 ± 5.6 | −101.6 ± 6.9 | −94.0 ± 10.5 | −40.8 ± 2.8 | −85.2 ± 13.6 | −105.5 ± 7.6
